Source: patent US6461997B1, “Triazole sulfones having herbicidal activity” (Monsanto Technology LLC, priority 1999, dated 2002)

Legend:
[1] = tested on: AEGCY (jointed goatgrass); assay: Pre-plant incorporated (PPI) herbicidal activity, cool season; assay type: in vivo, Aegilops cylindrica; conditions: for inhibition at 30 g/ha / inhibition at 100 g/ha / inhibition at 300 g/ha / inhibition at 900 g/ha / inhibition at 10 g/ha: Aegilops cylindrica, read-out: Percent inhibition AEGCY; for inhibition at 30 g/ha / inhibition at 100 g/ha / inhibition at 300 g/ha / inhibition at 900 g/ha / Percent inhibition AEGCY / inhibition at 10 g/ha: weed, PPI application; for PPI activity GR80, AEGCY: pre-plant incorporated, lowest tested rate with 80% or greater inhibition, about 14 days
Procedure: (§1) In another set of tests, the pre-plant incorporated (PPI) activity of compounds of this invention was evaluated on the same species as for the pre-emergence tests described above. In the PPI tests the following procedure, designed to simulate PPI application, was used.
(§2) A pre-prepared topsoil mixture (described above) was placed in a pot and compacted to a depth of 1.0 to 1.25 cm from the top of the pot. Seeds of each of several monocotyledonous and dicotyledonous annual plant species were placed on top of the soil. A sufficient quantity of soil to cover the seeds and level fill the pot was weighed into an open container. A known amount of the test compound was dissolved or suspended in an organic solvent and applied by spraying to this cover soil. The cover soil was thoroughly mixed to distribute the test compound throughout the cover soil, and was then applied as a cover layer over the seeds. Untreated soil was used as a cover layer for control pots. After treatment the plants were placed in a greenhouse where they received 0.64 cm of overhead irrigation. All subsequent watering consisted of a light overhead mist and/or subirrigation as needed for germination and growth. Tables 9 and 10 below relate to warm season plant species which were placed after pre-emergence treatment in a greenhouse with a 30/21° C. day/night temperature regime. Tables 11 and 12 below relates to cool season plant species placed after pre-emergence treatment in a greenhouse or growth chamber with an 18/13° C. day/night temperature regime. Only the compounds of Examples 1, 6, 8, 11, 13 and 15-20 were included in PPI tests.
(§3) Approximately 14 days after planting and treating, the plants were observed and herbicidal efficacy recorded as percent inhibition by comparison with untreated plants.

[2] = tested on: POAAN (annual bluegrass); assay: as above; assay type: in vivo, Poa annua; conditions: weed, PPI application; for inhibition at 30 g/ha / inhibition at 100 g/ha / inhibition at 300 g/ha / inhibition at 900 g/ha / inhibition at 10 g/ha: Poa annua, read-out: Percent inhibition POAAN
Procedure: as §1, §2, §3

[3] = tested on: BROTE (downy brome); assay: Post-emergence herbicidal activity, cool season; assay type: in vivo, Bromus tectorum; conditions: abraded plants sprayed at 300, 100, 30 and 10 g/ha; about 14 days after treatment
Procedure, shortened: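 Greenhouse-grown seedlings were abraded 9–14 days after planting, then sprayed at 300, 100, 30 and 10 g/ha in acetone:water (3,100 l/ha). Grown at 18/13 °C day/night, percent inhibition versus abraded unsprayed controls was scored about 14 days after treatment and GR80 assigned.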

[4] = tested on: BRAPP (broadleaf signalgrass); assay: Pre-emergence herbicidal activity, warm season; assay type: in vivo, Brachiaria platyphylla; conditions: GR80 = lowest tested rate (300, 100, 30, 10 g/ha) with 80% or greater inhibition; approx. 14 days after treating; 30/21° C.
Procedure, shortened: (§4)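 Seeds sown in sterilised fertilised topsoil received surface-applied compound in 50:50 acetone/water, typically at 300, 100, 30 and 10 g/ha, then greenhouse-grown at 30/21° C (warm-season species) or 18/13° C (cool-season species). Percent inhibition versus untreated plants was scored at about 14 days, giving GR80; an asterisk marks activity short of 80% at the top rate.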

[5] = tested on: POLCO (wild buckwheat); assay: Pre-emergence herbicidal activity, cool season; assay type: in vivo, Polygonum convolvulus; conditions: lowest tested rate with 80% or greater inhibition; rates 300, 100, 30, 10 g/ha; about 14 days
Procedure, shortened: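 Seeds were sown in sterilized, fertilized topsoil, covered, and the soil surface was sprayed with compound in 50:50 acetone/water at 300, 100, 30 and 10 g/ha. Pots were held at 30/21 °C day/night (PANMI, DIGSA) or 18/13 °C (ALOMY, POLCO). GR80 came from percent inhibition versus untreated plants at about 14 days.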

[6] = tested on: LOLMG (annual ryegrass); assay: Pre-plant incorporated (PPI) herbicidal activity, cool season; assay type: in vivo, Lolium multiflorum; conditions: for inhibition at 30 g/ha / inhibition at 100 g/ha / inhibition at 300 g/ha / inhibition at 900 g/ha / inhibition at 10 g/ha: Lolium multiflorum, read-out: Percent inhibition LOLMG; for inhibition at 30 g/ha / inhibition at 100 g/ha / inhibition at 300 g/ha / inhibition at 900 g/ha / Percent inhibition LOLMG / inhibition at 10 g/ha: weed, PPI application; for PPI activity GR80, LOLMG: pre-plant incorporated, lowest tested rate with 80% or greater inhibition, about 14 days
Procedure: as §1, §2, §3

[7] = tested on: AGSST (creeping bentgrass); assay: Pre-emergence herbicidal activity, cool season; assay type: in vivo, Agrostis stolonifera; conditions: GR80 = lowest tested rate (300, 100, 30, 10 g/ha) with 80% or greater inhibition; approx. 14 days after treating; 18/13° C.
Procedure, shortened: as §4

Compound	inhibition at 30 g/ha ([1]; 30 g/ha)	inhibition at 100 g/ha ([1]; 100 g/ha)	inhibition at 300 g/ha ([1]; 300 g/ha)	inhibition at 900 g/ha ([1]; 900 g/ha)	PPI activity GR80, AEGCY [1]	inhibition at 30 g/ha ([2]; 30 g/ha)	inhibition at 100 g/ha ([2]; 100 g/ha)	inhibition at 300 g/ha ([2]; 300 g/ha)	inhibition at 900 g/ha ([2]; 900 g/ha)	Post-emergence activity GR80, BROTE [3]	Pre-emergence activity (GR80) BRAPP [4]	Pre-emergence activity GR80, POLCO [5]	inhibition at 30 g/ha ([6]; 30 g/ha)	inhibition at 100 g/ha ([6]; 100 g/ha)	inhibition at 300 g/ha ([6]; 300 g/ha)	inhibition at 900 g/ha ([6]; 900 g/ha)	PPI activity GR80, LOLMG [6]	Pre-emergence activity (GR80) AGSST [7]	Percent inhibition AEGCY ([1]; 30 g/ha)	Percent inhibition AEGCY ([1]; 100 g/ha)	also measured
CCSC(F)(F)S(=O)(=O)c1ncn(C(=O)N(CC)CC)n1 [Example 8, 1-(N,N-diethylcarbamoyl)-3-[difluoro(ethylthio)methylsulfonyl]-1,2,4-triazole]	0%	50%	40%	20%	[empty]	100%	100%	100%	100%	[empty]	100 g/ha	[empty]	35%	100%	100%	100%	100 g/ha	30 g/ha	–	–	–
CCN(CC)C(=O)n1cnc(S(=O)(=O)C(F)(F)SC)n1 [Example 9]	–	–	–	–	–	–	–	–	–	[empty]	300 g/ha	[empty]	–	–	–	–	–	30 g/ha	0%	20%	Percent inhibition AEGCY ([1]; 300 g/ha): 30%; Percent inhibition AEGCY ([1]; 900 g/ha): 40%; Percent inhibition POAAN ([2]; 30 g/ha): 90%; Percent inhibition POAAN ([2]; 100 g/ha): 100%; Percent inhibition POAAN ([2]; 300 g/ha): 100%; Percent inhibition POAAN ([2]; 900 g/ha): 100%; Percent inhibition LOLMG ([6]; 30 g/ha): 60%; Percent inhibition LOLMG ([6]; 100 g/ha): 100%; Percent inhibition LOLMG ([6]; 300 g/ha): 100%; Percent inhibition LOLMG ([6]; 900 g/ha): 100%
CCN(CC)C(=O)n1cnc(S(=O)(=O)C(F)(F)SCc2ccccc2)n1 [Example 10]	–	–	–	–	–	–	–	–	–	[empty]	300 g/ha	[empty]	–	–	–	–	–	100 g/ha	0%	20%	Percent inhibition AEGCY ([1]; 10 g/ha): 0%; Percent inhibition AEGCY ([1]; 300 g/ha): 30%; Percent inhibition AEGCY ([1]; 900 g/ha): 20%; Percent inhibition POAAN ([2]; 10 g/ha): 0%; Percent inhibition POAAN ([2]; 30 g/ha): 10%; Percent inhibition POAAN ([2]; 100 g/ha): 95%; Percent inhibition POAAN ([2]; 300 g/ha): 100%; Percent inhibition POAAN ([2]; 900 g/ha): 100%; Percent inhibition LOLMG ([6]; 10 g/ha): 0%; Percent inhibition LOLMG ([6]; 30 g/ha): 0%; Percent inhibition LOLMG ([6]; 100 g/ha): 65%; Percent inhibition LOLMG ([6]; 300 g/ha): 100%; Percent inhibition LOLMG ([6]; 900 g/ha): 99%
CCN(CC)C(=O)n1cnc(S(=O)(=O)C(F)(F)SCCOC)n1 [Example 13]	–	–	–	–	[empty]	–	–	–	–	[empty]	300 g/ha	[empty]	–	–	–	–	* (activity observed, at least at highest rate, but <80% inhibition)	100 g/ha	0%	0%	Percent inhibition AEGCY ([1]; 10 g/ha): 0%; Percent inhibition AEGCY ([1]; 300 g/ha): 60%; Percent inhibition AEGCY ([1]; 900 g/ha): 40%; Percent inhibition POAAN ([2]; 10 g/ha): 0%; Percent inhibition POAAN ([2]; 30 g/ha): 50%; Percent inhibition POAAN ([2]; 100 g/ha): 90%; Percent inhibition POAAN ([2]; 300 g/ha): 100%; Percent inhibition POAAN ([2]; 900 g/ha): 95%; Percent inhibition LOLMG ([6]; 10 g/ha): 20%; Percent inhibition LOLMG ([6]; 30 g/ha): 60%; Percent inhibition LOLMG ([6]; 100 g/ha): 70%; Percent inhibition LOLMG ([6]; 300 g/ha): 100%; Percent inhibition LOLMG ([6]; 900 g/ha): 100%
C=CCC(F)(F)S(=O)(=O)c1ncn(C(=O)N(CC)CC)n1 [Example 17, 1-(N,N-diethylcarbamoyl)-3-[(1,1-difluoro-3-butenyl)sulfonyl]-1,2,4-triazole]	0%	0%	20%	40%	100 g/ha	60%	70%	95%	100%	[empty]	300 g/ha	100 g/ha	60%	95%	100%	100%	100 g/ha	100 g/ha	–	–	inhibition at 10 g/ha ([1]; 10 g/ha): 0%; inhibition at 10 g/ha ([2]; 10 g/ha): 10%; inhibition at 10 g/ha ([6]; 10 g/ha): 45%
C=C(C)CC(F)(F)S(=O)(=O)c1ncn(C(=O)N(CC)CC)n1 [Example 18]	0%	0%	20%	10%	* (activity observed, at least at highest rate, but <80% inhibition)	50%	65%	80%	100%	[empty]	300 g/ha	300 g/ha	60%	50%	100%	100%	100 g/ha	30 g/ha	–	–	inhibition at 10 g/ha ([1]; 10 g/ha): 0%; inhibition at 10 g/ha ([2]; 10 g/ha): 20%; inhibition at 10 g/ha ([6]; 10 g/ha): 20%
C=C(Br)CC(F)(F)S(=O)(=O)c1ncn(C(=O)N(CC)CC)n1 [Example 19]	0%	20%	50%	20%	300 g/ha	0%	10%	100%	100%	[empty]	300 g/ha	[empty]	70%	100%	100%	100%	300 g/ha	30 g/ha	–	–	inhibition at 10 g/ha ([1]; 10 g/ha): 0%; inhibition at 10 g/ha ([2]; 10 g/ha): 0%; inhibition at 10 g/ha ([6]; 10 g/ha): 30%
